Like-named read-outs stand apart in the source and are kept apart here.
Assays:
Format in all cases: biochemical
[1] = biological target: T1, wild-type RSV L-P RNA polymerase complex (Human respiratory syncytial virus A, UniProt P28887)
T1 construct: made in house; host or cells: insect cells

HCV polymerase = HCV polymerase (Hepatitis C virus genotype 1b, UniProt Q9WMX2); experiment: HCV polymerase inhibition assay; conditions: for IC50: second symbol of RSV / HCV, read-out: HCV polymerase inhibition class (IC50)
RSV RNP complex = RSV RNP complex (Human respiratory syncytial virus A, UniProt P28887); experiment: biochemical; conditions: for inhibition of RSV RNP complex (in words): Fig 5B; for IC50: first symbol of RSV / HCV, read-out: RSV polymerase inhibition class (IC50, RSV RNP complex)
[2] = biological target: RSV polymerase QUAD mutant (Human respiratory syncytial virus A, UniProt P28887, A789V/I796V/L795I/M628L); experiment: Single nucleotide incorporation by recombinant RSV L-P polymerase, QUAD mutant
[3] = biological target: human mitochondrial RNA polymerase (Homo sapiens, UniProt O00411); experiment: DdRp assay with human mitochondrial RNA polymerase, single turnover

T1 sequence (P28887 whole entry): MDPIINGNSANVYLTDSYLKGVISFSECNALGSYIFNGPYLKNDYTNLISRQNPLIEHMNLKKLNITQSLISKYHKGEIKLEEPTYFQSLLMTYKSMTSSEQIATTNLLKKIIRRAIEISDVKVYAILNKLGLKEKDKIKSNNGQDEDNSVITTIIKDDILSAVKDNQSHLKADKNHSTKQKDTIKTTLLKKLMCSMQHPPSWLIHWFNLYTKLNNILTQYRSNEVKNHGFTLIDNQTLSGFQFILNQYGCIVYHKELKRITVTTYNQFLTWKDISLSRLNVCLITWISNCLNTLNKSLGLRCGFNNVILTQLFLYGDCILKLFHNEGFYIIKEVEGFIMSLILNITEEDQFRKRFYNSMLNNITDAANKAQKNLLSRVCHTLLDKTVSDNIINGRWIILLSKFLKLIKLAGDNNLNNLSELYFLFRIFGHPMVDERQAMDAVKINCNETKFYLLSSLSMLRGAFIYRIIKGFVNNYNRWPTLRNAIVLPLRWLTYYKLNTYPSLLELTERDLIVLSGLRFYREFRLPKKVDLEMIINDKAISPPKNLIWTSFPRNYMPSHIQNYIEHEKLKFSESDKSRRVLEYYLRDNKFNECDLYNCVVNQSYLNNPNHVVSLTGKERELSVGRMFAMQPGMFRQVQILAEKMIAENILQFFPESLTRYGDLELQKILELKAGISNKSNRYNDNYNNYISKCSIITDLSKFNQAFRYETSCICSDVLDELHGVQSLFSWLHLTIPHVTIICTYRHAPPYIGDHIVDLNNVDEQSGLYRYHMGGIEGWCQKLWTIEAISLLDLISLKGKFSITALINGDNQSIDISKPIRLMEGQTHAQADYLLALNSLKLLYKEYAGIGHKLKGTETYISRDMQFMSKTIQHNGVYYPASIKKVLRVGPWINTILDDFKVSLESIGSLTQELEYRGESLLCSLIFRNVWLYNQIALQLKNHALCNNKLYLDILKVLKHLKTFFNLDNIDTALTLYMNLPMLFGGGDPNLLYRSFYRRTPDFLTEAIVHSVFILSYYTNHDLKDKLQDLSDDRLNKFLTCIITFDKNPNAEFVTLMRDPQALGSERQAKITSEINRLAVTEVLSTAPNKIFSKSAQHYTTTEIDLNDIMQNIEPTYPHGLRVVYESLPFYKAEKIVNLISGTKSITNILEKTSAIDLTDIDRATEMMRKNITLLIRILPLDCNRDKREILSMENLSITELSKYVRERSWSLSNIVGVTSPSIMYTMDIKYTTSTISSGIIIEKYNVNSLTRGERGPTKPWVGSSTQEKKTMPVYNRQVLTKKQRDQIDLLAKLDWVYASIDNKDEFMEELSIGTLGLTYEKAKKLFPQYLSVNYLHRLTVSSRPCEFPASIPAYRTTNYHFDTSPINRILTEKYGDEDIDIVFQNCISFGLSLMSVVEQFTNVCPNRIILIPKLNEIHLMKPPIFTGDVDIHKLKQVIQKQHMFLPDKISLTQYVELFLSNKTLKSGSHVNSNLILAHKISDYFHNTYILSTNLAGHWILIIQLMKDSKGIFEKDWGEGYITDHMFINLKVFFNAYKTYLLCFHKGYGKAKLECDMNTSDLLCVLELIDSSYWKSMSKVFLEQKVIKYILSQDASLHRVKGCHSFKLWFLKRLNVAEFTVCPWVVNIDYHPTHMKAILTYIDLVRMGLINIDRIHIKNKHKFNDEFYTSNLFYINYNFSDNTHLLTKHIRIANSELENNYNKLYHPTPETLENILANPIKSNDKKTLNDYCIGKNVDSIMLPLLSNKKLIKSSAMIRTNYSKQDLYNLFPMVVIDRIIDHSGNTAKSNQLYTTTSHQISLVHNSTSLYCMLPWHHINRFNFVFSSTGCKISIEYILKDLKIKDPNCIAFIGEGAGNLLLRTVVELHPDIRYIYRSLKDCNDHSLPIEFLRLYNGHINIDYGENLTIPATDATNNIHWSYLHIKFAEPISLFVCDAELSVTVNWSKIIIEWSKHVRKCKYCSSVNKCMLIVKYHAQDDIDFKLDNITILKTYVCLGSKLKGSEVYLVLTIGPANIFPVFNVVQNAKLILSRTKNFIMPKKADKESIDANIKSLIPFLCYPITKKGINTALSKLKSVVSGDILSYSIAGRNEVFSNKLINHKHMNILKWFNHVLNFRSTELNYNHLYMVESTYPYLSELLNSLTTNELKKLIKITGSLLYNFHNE
T1 sequence (P03421 whole entry, further chain): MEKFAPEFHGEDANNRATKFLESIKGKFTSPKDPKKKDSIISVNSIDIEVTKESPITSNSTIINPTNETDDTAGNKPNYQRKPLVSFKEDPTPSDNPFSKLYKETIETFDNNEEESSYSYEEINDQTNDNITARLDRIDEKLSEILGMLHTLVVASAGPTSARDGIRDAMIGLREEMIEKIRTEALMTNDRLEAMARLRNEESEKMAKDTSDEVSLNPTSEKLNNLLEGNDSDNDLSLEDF
Sequence of RSV RNP complex (P03421 whole entry): as the sequence (P03421 whole entry, further chain) above
Sequence of RSV RNP complex (P28887 whole entry): as the sequence (P28887 whole entry) above

Compound | substrate and chain termination profile with recombinant RSV polymerase (in words) ([1]; Fig 5A) | discrimination relative to natural CTP, WT RSV polymerase ([1]; Km CTP analog / Km CTP) | Km ([1]; primer extension from the +3 position, read-out: Km, single nucleotide incorporation, WT RSV L-P) | inhibition of HCV polymerase (in words) (HCV polymerase; Fig 5B) | IC50 (HCV polymerase) | inhibition of RSV RNP complex (in words) (RSV RNP complex) | IC50 (RSV RNP complex) | Km ([2]; primer extension from the +3 position, n = 2) | increase in discrimination, QUAD vs WT (resistance level) ([2]; recombinant L-P enzymes) | inhibition of HCV polymerase (in words) (HCV polymerase) | recognition as substrate by human mitochondrial RNA polymerase (in words) [3] | substrate and chain termination profile with recombinant RSV polymerase (in words) [1]
4'ClCH2-CTP | less efficiently recognized | 288±48 fold | 16 ± 2.7 µM | dual RSV/HCV polymerase inhibitors | 0.1 to 10 µM | dual RSV/HCV polymerase inhibitors | 0.1 to 10 µM | 198 ± 18 µM | 24 fold | – | – | –
[N-]=[N+]=N[C@]1(COP(=O)(O)OP(=O)(O)OP(=O)(O)O)O[C@@H](n2ccc(N)nc2=O)[C@H](F)[C@@H]1O [2'F-4'N3-CTP] | both substrates and chain terminators | – | – | dual RSV/HCV polymerase inhibitors | 0.1 to 10 µM | dual RSV/HCV polymerase inhibitors | 0.1 to 10 µM | – | – | – | – | –
Nc1ccn([C@@H]2O[C@H](COP(=O)(O)OP(=O)(O)OP(=O)(O)O)[C@@H](O)[C@H]2F)c(=O)n1 [2'F-CTP] | – | – | – | – | – | – | – | – | – | did not efficiently inhibit | recognized as a substrate | –
Nc1ccn([C@@H]2O[C@](CCl)(COP(=O)(O)OP(=O)(O)OP(=O)(O)O)[C@@H](O)C2(F)F)c(=O)n1 [2'diF-4'ClCH2-CTP] | – | – | – | – | > 10 µM | – | > 10 µM | – | – | – | – | almost completely inactive
[N-]=[N+]=NC1(COP(=O)(O)OP(=O)(O)OP(=O)(O)O)OC(n2ccc(N)nc2=O)C(F)(F)C1O (centres unmarked) [2'diF-4'N3-CTP] | – | – | – | dual RSV/HCV polymerase inhibitors | 0.1 to 10 µM | dual RSV/HCV polymerase inhibitors | 0.1 to 10 µM | – | – | – | – | both substrates and chain terminators
Nc1ccn([C@@H]2O[C@H](COP(=O)(O)OP(=O)(O)OP(=O)(O)O)[C@@H](O)C2(F)F)c(=O)n1 [2'diF-CTP, reference compound] | – | – | – | did not efficiently inhibit | 0.1 to 10 µM | did not efficiently inhibit | > 10 µM | – | – | – | – | substrates for RSV polymerase, but did not cause immediate chain termination

— article PMC4476725 (PLoS Pathogens, 2015)
